Measured values reported in paper PMC12163684, “Gunacins: Novel Benzo[g]chromene Derivatives from the Fungus Exobasidium sp. and Their Potent Anti-Leishmania and Trypanosoma Activities” (ACS Omega, 2025).
Converted amounts (≈) assume the structure as drawn.

Columns and labels:
[1] = system: Madin–Darby canine kidney (MDCK) epithelial cell line; experiment: Cytotoxicity on proliferating cells, crystal violet assay, OD590; format: cell-based; conditions: Canis lupus familiaris, 24 h treatment, read-out: EC50 ± SEM MDCK
Experimental: (§1) MDCK and RAT cells were cultured in DMEM with 10% FBS at 37 °C in a 5% CO2 atmosphere as described previously. , To assess the toxic effects of the compounds on proliferating cells, cells were seeded in 24-well plates for 24 h to reach ∼15% confluence, and cells were treated in triplicate with increasing concentrations of the isolated compounds for an additional 24 h. Cells were washed with 1× PBS, fixed in staining solution (0.5% crystal violet, 20% methanol) for 10 min, and gently washed five times in 1× PBS. The fixed cells were then dissolved in lysis solution (0.1 M sodium citrate, 25% ethanol, pH 4.2) for 30 min, transferred to a 96-well plate in H2O, and the OD^590 was determined. EC50 values were determined using GraphPad Prism software and the dose–response fit equation. The EC50 values were determined from two independent experiments. Additionally, the impact of the isolated substances on the morphology of the HeLa adenocarcinoma cell line and primary human skin fibroblasts was examined by using fluorescence microscopy. Cells were cultured in DME medium supplemented with 10% FCS (Gibco, Invitrogen, Carlsbad, USA) on glass coverslips in 24-well plates until reaching approximately 50% confluence. The cells were treated with varying concentrations of isolated compounds dissolved in DMSO. Wells containing DMEM with DMSO served as the negative control. After 24 h cultivation, the cells were incubated with MitoTracker Red CMXRos (10 min) to label mitochondria, then fixed with 3.7% paraformaldehyde in PBS (20 min, room temperature), permeabilized with 0.1% Triton X-100 in PBS, and blocked with 1% BSA in PBS. The cells were then stained with Phalloidin-Alexa Fluor488 conjugate. All fluorescence reagents were purchased from Molecular Probes, Invitrogen, Carlsbad, CA, USA. Nuclei were stained with Fluoroshield DAPI (Sigma-Aldrich), and cells were examined using an IX71 microscope equipped with a DP70 camera and a 40× objective. Assays were performed at concentrations of 5, 25, 50, 100, and 125 μM.

[2] = system: RAT2 fibroblast cell line; experiment: as above; format: cell-based; conditions: Rat2, 24 h, 24 h treatment, read-out: EC50 ± SEM RAT2
Experimental: as §1

C. albicans CCM 8215 = experiment: Minimum inhibitory concentration (MIC) testing, serial binary dilution in 96-well plates; format: cell-based; conditions: Candida albicans, CCM8215; 24 h in the dark; n.d. = activity not detected; highest tested concentration 66.7 μM
Experimental: (§2) Minimum inhibitory concentration (MIC) testing of the extracts was performed using 96-well polypropylene plates against four different microorganisms: the Gram-positive bacterium K. rhizophila ATCC 9341, the Gram-negative bacterium E. coli ATCC 3988, and the yeasts C. albicans CCM 8215 and C. neoformans CCF 1081.
(§3) A working inoculum of each microorganism was prepared as follows: for E. coli and K. rhizophila, the inoculum was grown in LB medium (LB Broth, 25 g/L, incubated at 36 °C); for C. albicans and C. neoformans, YM6.3 medium (maltose extract 10 g, glucose 4 g, yeast extract 4 g per 1 L distilled water, incubated at 24 °C) with a cell concentration of approximately 5 × 10^5 cells/mL for all microorganisms was used.
(§4) Chloramphenicol served as a positive control for bacteria, while cycloheximide was used as a positive control for fungi. The gradient of the test substances was established by serial binary dilution across the wells. The MIC was determined by identifying the lowest concentration at which no live microorganisms were present. Cultivation was performed in the dark for 24 h.

C. neoformans CCF 1081 = experiment: as above; format: cell-based; conditions: Cryptococcus neoformans, CCF1081; 24 h in the dark; n.d. = activity not detected; highest tested concentration 66.7 μM
Experimental: as §2, §3, §4

E. coli ATCC 3988 = experiment: as above; format: cell-based; conditions: Escherichia coli, ATCC3988; 24 h in the dark; lowest concentration with no live microorganisms
Experimental: as §2, §3, §4

K. rhizophila ATCC 9341 = experiment: as above; format: cell-based; conditions: Kocuria rhizophila, ATCC9341; 24 h in the dark; lowest concentration with no live microorganisms
Experimental: as §2, §3, §4

T. b. evansi AnTat 3/3 = experiment: Anti-trypanosomal activity, resazurin (AB assay), bloodstream form; format: cell-based, T. brucei evansi; conditions: Trypanosoma brucei, 72 h, axenic, 48 h + 24 h resazurin
Experimental: (§5) The bloodstream forms of T. b. gambiense LiTat 1.3, T. b. brucei 427, and T. b. evansi AnTat 3/3 were grown in HMI-11 medium pH 7.3 supplemented with 36 mM sodium bicarbonate, 100 U/mL penicillin/streptomycin, and 10% fetal bovine serum at 37 °C and 5% CO2. The bloodstream form of Trypanosoma congolense IL3000 (generous gift from Liam Morrison) was cultured in TcBSF-1 medium pH 7.3 supplemented with 26 mM sodium bicarbonate, 25 mM HEPES, 5.5 mM glucose, 1 mM sodium pyruvate, 0.04 mM adenosine, 0.1 mM hypoxanthine, 0.02 mM thymidine, 0.02 mM bathocuproine, 2 mM L-glutamine, 0.2 mM 2-mercaptoethanol, 100 U/ml penicillin/streptomycin, and 20% goat serum New Zealand origin (Gibco) at 34 °C, 5% CO2. The assay for anti-trypanosomal activity was performed using the resazurin sodium salt dye (AB Assay) according to the published protocol in a 96-well plate format. Parasites at a number of 5 × 10^3 per well (T. b. brucei and T. b. gambiense) or 1 × 10^4 per well (T. b. evansi) were incubated with different drug concentrations (2-fold serial dilutions) in a volume of 200 μL of the medium. Medium with 1% DMSO (the highest concentration of the solvent used in the assay) was used to confirm no effect of the solvent on the cell growth. The plates were incubated for 48 h at the appropriate temperature. Then, 20 μL of resazurin sodium salt solution (0.125 mg/mL in 1× PBS, pH 7. 4) was added to each well, and the cells were incubated for another 24 h under the same conditions. The fluorescence signal was quantified using a Tecan Infinite M200 plate reader at excitation and emission wavelengths of 560 and 590 nm, respectively. The EC50 values were calculated using GraphPad Prism 9.5.1 by nonlinear regression with a variable slope. Each EC50 value is the mean ± standard error of the mean of three separate experiments performed in duplicate.

[3] = system: T. b. gambiense LiTat 1.3; experiment: as above; format: cell-based, T. brucei gambiense; conditions: Trypanosoma brucei, 72 h, axenic, 48 h + 24 h resazurin
Experimental: as §5

T. b. brucei 427 = experiment: as above; format: cell-based; conditions: Trypanosoma brucei, 72 h, axenic, 48 h + 24 h resazurin
Experimental: as §5

[4] = system: Trypanosoma congolense IL3000; experiment: as above; format: cell-based; conditions: 72 h, axenic, 48 h + 24 h resazurin, read-out: EC50 T. congolense
Experimental: as §5

[5] = system: L. mexicana (MNYC/BZ/1962/M379) promastigote; experiment: Anti-Leishmania activity, AB assay, axenic promastigotes; format: cell-based
Experimental: (§6) Promastigote stages of L. mexicana (MNYC/BZ/1962/M379), a generous gift from Vyacheslav Yurchenko, were cultured in M199 medium pH 7.4 supplemented with 2 μg/mL biopterin, 2 μg/mL hemin, 25 mM HEPES, 100 U/mL penicillin/streptomycin, and 10% heat-inactivated FBS (BioSera) pH 7.4 at 25 °C. The amastigotes were differentiated in vitro from late log/stationary promastigote cultures and cultivated in Schneider’s Drosophila Medium (SIM) at pH 5.5, supplemented with 1.5 μg/mL hemin, 100 U/mL penicillin/streptomycin, and 20% heat-inactivated FBS (BioSera) at pH 5.5, at 32 °C, and 5% CO2. Following a three-day period, the promastigotes underwent a transformation into amastigotes, which were then maintained in SIM.
(§7) To estimate the EC50, the AB assay, as previously described, was employed. The results are expressed as EC50, representing the dose of the compound required to inhibit cellular growth by 50%. Each EC50 value is the mean ± the standard error of the mean derived from at least three separate experiments, each performed in duplicate.

[6] = system: L. mexicana (MNYC/BZ/1962/M379) amastigote; experiment: Anti-Leishmania activity, AB assay, axenic amastigotes; format: cell-based
Experimental: as §6, §7

## COc1cc(O)c2c(c1)C(=O)C1=C(C2=O)[C@@H](O)[C@@H](O)[C@@H](C)O1 [Compound 4, (2R,3R,4R)-3,4,6-trihydroxy-8-methoxy-2-methyl-3,4-dihydro-2H-benzo[g]chromene-5,10-dione]
[1]
  EC50: 6 ± 1 µM
[2]
  EC50: 5.1 ± 0.1 µM

## COc1cc(O)c2c(c1)C(=O)C1=C(C[C@@H](O)[C@@H](C)O1)C2=O [Compound 6, (2R,3R)-3,6-dihydroxy-8-methoxy-2-methyl-3,4-dihydro-2H-benzo[g]chromene-5,10-dione]
C. albicans CCM 8215
  MIC: 66.7 µM (≈ 19.4 µg/mL)
C. neoformans CCF 1081
  MIC: 66.7 µM (≈ 19.4 µg/mL)
E. coli ATCC 3988
  MIC: 2.1 µM (≈ 0.61 µg/mL)
K. rhizophila ATCC 9341
  MIC: 8.3 µM (≈ 2.41 µg/mL)
[1]
  EC50: 7.2 ± 0.5 µM
[2]
  EC50: 6.7 ± 0.8 µM
T. b. evansi AnTat 3/3
  EC50: 2.4 µM
[3]
  EC50: 8.6 µM
T. b. brucei 427
  EC50: 5.1 µM
[4]
  EC50: 9.2 µM
[5]
  EC50: 25.2 µM
[6]
  EC50: 5.5 µM

## C[C@@H]1[C@H](O)[C@@H](C)/C=C/C=C/C=C/C=C/C=C/C=C/C=C/[C@H](O[C@@H]2O[C@H](C)[C@@H](O)[C@H](N)[C@@H]2O)C[C@@H]2O[C@](O)(C[C@@H](O)C[C@@H](O)[C@H](O)CC[C@@H](O)C[C@@H](O)CC(=O)O[C@H]1C)C[C@H](O)[C@H]2C(=O)O [amphotericin B, reference compound]
[5]
  EC50: 0.1 µM

## O=C(N[C@H](CO)[C@H](O)c1ccc([N+](=O)[O-])cc1)C(Cl)Cl [chloramphenicol, reference compound]
E. coli ATCC 3988
  MIC: 10.3 µM (≈ 3.33 µg/mL)
K. rhizophila ATCC 9341
  MIC: 10.3 µM (≈ 3.33 µg/mL)
